From patent EP1229027A1 (priority 1996, dated 1998)

Columns and labels:
Pythium ultimum = assay: Fungitoxicity against Pythium ultimum (mycelial dry weight growth in liquid asparagine-sucrose broth); type: cell-based; conditions: Globisporangium ultimum; 100 ppm of the compound; 48 hours at 25 °C; increase in mycelial dry weight compared to controls
Procedure: Compounds were tested for fungitoxicity against Pythium ultimum according to the procedures set forth below.
Test compounds were dissolved in dimethylsulfoxide at 20 mg/ml and 0.1 ml was added to 19.9 ml of a liquid asparagine-sucrose broth, prepared according to the method described in Erwin, D.C., and Katznelson, K., Canadian Journal of Microbiology 7, 15 (1971), in 9 cm petri dishes to give a concentration of 100 ppm of the compound. Each plate was inoculated with a mycelial plug, 7 mm in diameter, taken from the growing edge of a culture of Pythium ultimum grown on potato dextrose agar. Two replicate plates were used for each treatment. After growth for 48 hours at 25 °C with shaking on a gyrotary shaker at 60 rpm, the increase in mycelial dry weight was determined. Fungitoxicity was recorded as percent inhibition of growth as compared to controls lacking the test compounds. 2.

Phytophthora infestans = type: in vivo; conditions: Rate 300 ppm; tomato seedlings; evaluated 6 days after inoculation
Plasmopara viticola = conditions: in vivo

SMILES	inhibition at 100 ppm (Pythium ultimum) [%]	TLB (percent disease control) (Phytophthora infestans) [%]	GDM (percent disease control) (Plasmopara viticola) [%]
CCC(C)(NC(=O)c1ccc2nc(C)oc2c1)C(=O)CCl (stereo not shown) [Compound 2, N-(3-chloro-1-ethyl-1-methyl-2-oxopropyl)-2-methylbenzoxazole-6-carboxamide]	92.2	90	100
CCC(C)(NC(=O)c1ccc2c(c1)NC(=O)CO2)C(=O)CCl (stereo not shown) [Compound 11, N-(3-chloro-1-ethyl-1-methyl-2-oxopropyl)-1,4-benzoxazine-3-one-6-carboxamide]	34.3	95	0
CCC(C)(NC(=O)c1ccc2c(c1)NC(=O)CO2)C(=O)C(Cl)Cl (stereo not shown) [Compound 13, N-(3,3-dichloro-1-ethyl-1-methyl-2-oxopropyl)-1,4-benzoxazine-3-one-6-carboxamide]	60.8	–	–
